Among the data in PMC2836812 (Chemical biology & drug design, 2010) are IC50 values, retold here.

By IC50 is commonly meant the concentration at which inhibition is half-maximal. Low readings indicate greater potency in that assay, high ones weaker potency in that assay.

Where two headings read alike, the source gives them in different places.

Assay [1] concerns the target T1, ScPFTase (protein farnesyltransferase), β-subunit (Saccharomyces cerevisiae, UniProt P22007).
T1 sequence (P22007 1-431): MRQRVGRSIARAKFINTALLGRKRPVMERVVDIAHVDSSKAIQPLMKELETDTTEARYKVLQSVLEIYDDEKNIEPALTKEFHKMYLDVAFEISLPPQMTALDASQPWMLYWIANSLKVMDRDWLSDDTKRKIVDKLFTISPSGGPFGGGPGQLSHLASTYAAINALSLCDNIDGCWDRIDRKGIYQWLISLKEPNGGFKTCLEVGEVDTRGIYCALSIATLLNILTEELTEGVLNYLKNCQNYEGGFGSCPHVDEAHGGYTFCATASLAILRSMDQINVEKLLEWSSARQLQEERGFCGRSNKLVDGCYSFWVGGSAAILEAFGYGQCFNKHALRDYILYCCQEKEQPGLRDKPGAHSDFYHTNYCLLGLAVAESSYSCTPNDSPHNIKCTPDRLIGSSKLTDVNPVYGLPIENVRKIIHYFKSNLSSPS
T1 sequence (P29703 1-316 partner): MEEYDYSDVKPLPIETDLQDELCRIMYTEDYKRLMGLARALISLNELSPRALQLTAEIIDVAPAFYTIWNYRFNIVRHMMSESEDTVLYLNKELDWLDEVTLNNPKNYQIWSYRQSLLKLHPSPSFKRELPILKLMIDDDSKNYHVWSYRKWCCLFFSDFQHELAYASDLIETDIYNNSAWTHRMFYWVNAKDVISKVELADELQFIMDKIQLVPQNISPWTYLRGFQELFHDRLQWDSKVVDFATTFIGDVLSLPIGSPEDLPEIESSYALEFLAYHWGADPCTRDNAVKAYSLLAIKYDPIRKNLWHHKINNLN
Kind of assay: continuous fluorescence assay with N-dansyl-GCVIA. Type of assay: biochemical.

The target in assay [2] is T1, ScPFTase (protein farnesyltransferase), β-subunit. Kind of assay: continuous fluorescence assay with N-dansyl-GCVIA. Format: biochemical. The source holds these as a separate data set.

`C/C(=C\COP(=O)(O)OP(=O)(O)O)CCCC(C)COC(=O)C(=[N+]=[N-])C(F)(F)F` (racemic) [compound 4, (E)-8-O-(2-Diazo-3,3,3-trifluoropropanoyloxy)-3,7-dimethyl-2-octenyl-1-diphosphate]: it took 30 µM to reach half-maximal inhibition in assay [1] (IC50).

In assay [2], `C/C(=C\COP(=O)(O)OP(=O)(O)O)CC/C=C(\C)CNC(=O)C(=[N+]=[N-])C(F)(F)F` [compound 3, (E,E)-8-N-(2-Diazo-3,3,3-trifluoropropionamido)-3,7-dimethyl-2,6-octadienyl-1-diphosphate] had an IC50 of 50 µM.
